In patent US20080014186A1, “Hla-A24 or Hla-A2 Binding Peptides of Parathyroid Hormone-Related Protein” (GREEN PEPTIDE CO., LTD., priority 2004, published 2008):

What was measured:
[1] = tested on: PBMCs of HLA-A2^+ healthy donors and prostate cancer patients; assay: Assay for peptide-specific CTLs in PBMCs (IFN-γ ELISA, peptide-pulsed T2 cells); type: cell-based, human; conditions: for INF-γ production: T2 cells
[2] = tested on: IgG in plasma of HLA-A2^+ healthy donors and prostate cancer patients; assay: Peptide-specific IgG in plasma by ELISA (HLA-A2-binding PTHrP peptides); parameters: species or system human; conditions: for IgG reactive to the peptide in plasma (difference of OD): 1:100-diluted plasma
Procedure: Peptide-specific IgG levels in the plasma were measured by ELISA, as previously reported. In brief, peptide (20 μg/well)-immobilized plates were blocked with Block Ace (Yukijirushi, Tokyo, Japan) and washed with 0.05% Tween20-PBS, after which 100 μl/well of plasma sample diluted with 0.05% Tween20-Block Ace was added to the plate. After 2 hours incubation at 37° C., the plates were washed and further incubated for 2 hours with a 1:1000-diluted rabbit anti-human IgG (γ-chain-specific) (DAKO, Glostrup, Denmark). The plates were washed, and then 100 μl of 1:100-diluted goat anti-rabbit IgG-conjugated horseradish peroxidase (EnVision, DAKO) was added to each well, and the plates were then incubated at room temperature for 40 min. After the plates were washed once, 100 μl/well of tetramethyl benzidine substrate solution (KPL, Guildford, UK) was added, and the reaction was stopped by the addition of 1 M phosphoric acid. The values are shown as optical density (OD) units/ml, and responses to the HIV peptide were subtracted. IgG reactive to a corresponding PTHrP peptide was judged to be positive when the difference of the OD in 1:100-diluted plasma exceeded 0.05. The results that IgG reactive to either the PTHrP102-111 or the […] peptide was detected in 8 of 10 healthy donors and in 7 of 10 prostate cancers are shown in Table 2 hereinafter.
In a similar way to Example 3, it was examined whether IgGs reactive to peptides of PTHrP 42-51 and PTHrP 59-67 could be detected in the plasma of 10 healthy donors and 10 cancer patients. The cut-off value at 1:100-diluted plasma was ODO.054.

Sequence: IQDLRRRFFL [PTHrP 51-60]
- INF-γ production ([1]; HLA-A2^+ healthy donor #1 (A0201)): 0 pg/mL
- INF-γ production ([1]; HLA-A2^+ healthy donor #2 (A0201)): 79 pg/mL
- INF-γ production ([1]; HLA-A2^+ healthy donor #3 (A0201)): 0 pg/mL
- INF-γ production ([1]; HLA-A2^+ healthy donor #4 (A0201)): 314 pg/mL
- INF-γ production ([1]; HLA-A2^+ healthy donor #5 (A0206)): 0 pg/mL
- INF-γ production ([1]; HLA-A2^+ healthy donor #6 (A0206)): 46 pg/mL
- INF-γ production ([1]; HLA-A2^+ healthy donor #7 (A0206)): 0 pg/mL
- INF-γ production ([1]; HLA-A2^+ healthy donor #8 (A0206)): 16 pg/mL
- INF-γ production ([1]; HLA-A2^+ healthy donor #9 (A0206)): 0 pg/mL
- INF-γ production ([1]; HLA-A2^+ healthy donor #10 (A0207)): 14 pg/mL
- Total (donors with significant peptide-specific IFN-γ production / donors tested) ([1]; HLA-A2^+ healthy donors, p < 0.05): 2/10
- INF-γ production ([1]; HLA-A2^+ prostate cancer patient #1 (A0206)): 55 pg/mL
- INF-γ production ([1]; HLA-A2^+ prostate cancer patient #2 (A0210)): 187 pg/mL
- INF-γ production ([1]; HLA-A2^+ prostate cancer patient #3 (A0210)): 34 pg/mL
- INF-γ production ([1]; HLA-A2^+ prostate cancer patient #4 (A0206)): 33 pg/mL
- INF-γ production ([1]; HLA-A2^+ prostate cancer patient #5 (A0206)): 0 pg/mL
- INF-γ production ([1]; HLA-A2^+ prostate cancer patient #6 (A0207)): 0 pg/mL
- INF-γ production ([1]; HLA-A2^+ prostate cancer patient #7 (A0206)): 0 pg/mL
- INF-γ production ([1]; HLA-A2^+ prostate cancer patient #8 (A0206)): 2 pg/mL
- INF-γ production ([1]; HLA-A2^+ prostate cancer patient #9 (A0201)): 67 pg/mL
- INF-γ production ([1]; HLA-A2^+ prostate cancer patient #10 (A0201)): 21 pg/mL
- Total (patients with significant peptide-specific IFN-γ production / patients tested) ([1]; HLA-A2^+ prostate cancer patients, p < 0.05): 2/10
- IgG reactive to the peptide in plasma (difference of OD) ([2]; HLA-A2^+ healthy donor #1): 0.0945 OD
- IgG reactive to the peptide in plasma (difference of OD) ([2]; HLA-A2^+ healthy donor #2): 0.1338 OD
- IgG reactive to the peptide in plasma (difference of OD) ([2]; HLA-A2^+ healthy donor #3): — (IgG reactive to a corresponding peptide was judged to be positive when a difference of OD in a 1:100-diluted plasma was more than 0.054.)
- IgG reactive to the peptide in plasma (difference of OD) ([2]; HLA-A2^+ healthy donor #4): — (IgG reactive to a corresponding peptide was judged to be positive when a difference of OD in a 1:100-diluted plasma was more than 0.054.)
- IgG reactive to the peptide in plasma (difference of OD) ([2]; HLA-A2^+ healthy donor #5): — (IgG reactive to a corresponding peptide was judged to be positive when a difference of OD in a 1:100-diluted plasma was more than 0.054.)
- IgG reactive to the peptide in plasma (difference of OD) ([2]; HLA-A2^+ healthy donor #6): — (IgG reactive to a corresponding peptide was judged to be positive when a difference of OD in a 1:100-diluted plasma was more than 0.054.)
- IgG reactive to the peptide in plasma (difference of OD) ([2]; HLA-A2^+ healthy donor #7): 0.0675 OD
- IgG reactive to the peptide in plasma (difference of OD) ([2]; HLA-A2^+ healthy donor #8): — (IgG reactive to a corresponding peptide was judged to be positive when a difference of OD in a 1:100-diluted plasma was more than 0.054.)
- IgG reactive to the peptide in plasma (difference of OD) ([2]; HLA-A2^+ healthy donor #9): — (IgG reactive to a corresponding peptide was judged to be positive when a difference of OD in a 1:100-diluted plasma was more than 0.054.)
- IgG reactive to the peptide in plasma (difference of OD) ([2]; HLA-A2^+ healthy donor #10): — (IgG reactive to a corresponding peptide was judged to be positive when a difference of OD in a 1:100-diluted plasma was more than 0.054.)
- Total (IgG-positive donors / donors tested) ([2]; HLA-A2^+ healthy donors): 3/10
- IgG reactive to the peptide in plasma (difference of OD) ([2]; HLA-A2^+ prostate cancer patient #1): — (IgG reactive to a corresponding peptide was judged to be positive when a difference of OD in a 1:100-diluted plasma was more than 0.054.)
- IgG reactive to the peptide in plasma (difference of OD) ([2]; HLA-A2^+ prostate cancer patient #2): — (IgG reactive to a corresponding peptide was judged to be positive when a difference of OD in a 1:100-diluted plasma was more than 0.054.)
- IgG reactive to the peptide in plasma (difference of OD) ([2]; HLA-A2^+ prostate cancer patient #3): 0.0675 OD
- IgG reactive to the peptide in plasma (difference of OD) ([2]; HLA-A2^+ prostate cancer patient #4): — (IgG reactive to a corresponding peptide was judged to be positive when a difference of OD in a 1:100-diluted plasma was more than 0.054.)
- IgG reactive to the peptide in plasma (difference of OD) ([2]; HLA-A2^+ prostate cancer patient #5): — (IgG reactive to a corresponding peptide was judged to be positive when a difference of OD in a 1:100-diluted plasma was more than 0.054.)
- IgG reactive to the peptide in plasma (difference of OD) ([2]; HLA-A2^+ prostate cancer patient #6): — (IgG reactive to a corresponding peptide was judged to be positive when a difference of OD in a 1:100-diluted plasma was more than 0.054.)
- IgG reactive to the peptide in plasma (difference of OD) ([2]; HLA-A2^+ prostate cancer patient #7): — (IgG reactive to a corresponding peptide was judged to be positive when a difference of OD in a 1:100-diluted plasma was more than 0.054.)
- IgG reactive to the peptide in plasma (difference of OD) ([2]; HLA-A2^+ prostate cancer patient #8): — (IgG reactive to a corresponding peptide was judged to be positive when a difference of OD in a 1:100-diluted plasma was more than 0.054.)
- IgG reactive to the peptide in plasma (difference of OD) ([2]; HLA-A2^+ prostate cancer patient #9): — (IgG reactive to a corresponding peptide was judged to be positive when a difference of OD in a 1:100-diluted plasma was more than 0.054.)
- IgG reactive to the peptide in plasma (difference of OD) ([2]; HLA-A2^+ prostate cancer patient #10): 0.0995 OD
- Total (IgG-positive patients / patients tested) ([2]; HLA-A2^+ prostate cancer patients): 2/10
